Assay results published in publication PMC4507174, “Sulfonoquinovosyl diacylglyceride selectively targets acute lymphoblastic leukemia cells and exerts potent anti-leukemic effects in vivo” (Scientific Reports, 2015).

Tests used:
[1] = molecular target: T1, human DNA topoisomerase I (Homo sapiens, UniProt P11387); test: DNA relaxation assay with enzyme preincubation; also EMSA and cleavage assays; assay type: biochemical
T1 construct: gene TOP1
T1 sequence (P11387 2-765): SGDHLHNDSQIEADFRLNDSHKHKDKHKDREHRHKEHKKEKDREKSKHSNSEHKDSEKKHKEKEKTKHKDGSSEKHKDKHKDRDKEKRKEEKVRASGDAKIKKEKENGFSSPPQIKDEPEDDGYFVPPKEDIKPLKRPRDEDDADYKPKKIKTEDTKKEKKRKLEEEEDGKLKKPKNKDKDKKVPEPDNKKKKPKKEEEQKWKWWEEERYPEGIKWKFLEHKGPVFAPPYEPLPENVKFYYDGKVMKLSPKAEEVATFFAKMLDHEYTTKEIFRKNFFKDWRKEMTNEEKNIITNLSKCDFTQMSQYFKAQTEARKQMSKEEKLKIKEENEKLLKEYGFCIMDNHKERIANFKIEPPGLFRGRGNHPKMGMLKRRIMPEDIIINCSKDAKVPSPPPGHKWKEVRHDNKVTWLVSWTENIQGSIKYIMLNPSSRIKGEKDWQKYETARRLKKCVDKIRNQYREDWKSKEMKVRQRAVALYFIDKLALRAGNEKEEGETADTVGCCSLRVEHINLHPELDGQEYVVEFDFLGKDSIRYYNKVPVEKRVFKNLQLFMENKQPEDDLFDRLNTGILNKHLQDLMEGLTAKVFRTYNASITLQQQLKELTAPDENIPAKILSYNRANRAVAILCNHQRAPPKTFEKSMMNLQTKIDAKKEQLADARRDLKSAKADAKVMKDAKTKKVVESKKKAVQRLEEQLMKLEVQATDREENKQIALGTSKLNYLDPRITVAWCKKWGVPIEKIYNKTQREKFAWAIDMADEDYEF

[2] = molecular target: T1, human DNA topoisomerase I; test: oligonucleotide cleavage assay:[…] BA added before […] CPT; assay type: biochemical

IC100 [1] | Compound | oligonucleotide cleavage assay: 20 uM BA added before 20 uM CPT [2]
1.5 µM | CCCCCCCCCCCCCCCC(=O)OC[C@H](CO[C@H]1O[C@H](CS(=O)(=O)O)[C@@H](O)[C@H](O)[C@H]1O)OC(=O)CCCCCCCCCCCCCCC [SQDG] | –
– | C=C(C)[C@@H]1CC[C@]2(C(=O)O)CC[C@]3(C)[C@H](CC[C@@H]4[C@@]5(C)CC[C@H](O)C(C)(C)[C@@H]5CC[C@]43C)[C@@H]12 [Betulinic acid] | SQDG/BA abrogates CPT mediated topo I-oligo covalent complex formation
